“Also recorded” adds a separate entry of the source. Where two headings read alike, the source gives them in different places.
Tests used:
[1] = tested on: BJ-TERT/LT/ST/RAS^V12 cells; assay: Suppression of erastin-induced cell death (suppressor screen and follow-up); assay type: cell-based, human; settings: co-treatment with erastin
[2] = tested on: BJ-TERT/LT/ST/RAS^V12 cells; assay: Alamar Blue viability assay; assay type: cell-based, human; settings: for IC50: BJ-TERT/LT/ST/RAS^V12 (BJELR) cells, read-out: IC50 (lethality); for Selective lethality / activity of erastin analog: BJ-TERT/LT/ST/RAS^V12 cells versus BJ-TERT cells
Method: (a) Calu-1 lung carcinoma cells harboring oncogenic KRAS were infected with lentivirus containing shRNAs targeting KRAS or GFP. Sequences of shRNAs are indicated by starting nucleotide (nt) in the KRAS mRNA coding sequence. Cells were treated with erastin and viability measured by Trypan Blue exclusion. (b) Knockdown of KRAS was confirmed by western blot. (c,d) A673 cells harboring oncogenic BRAF were infected with lentiviral shRNAs targeting BRAF exon 5 (c) or the 5′ UTR (d), luciferase (LUC) (c) or GFP (d). Cells were treated with erastin and viability measured using Alamar Blue (c) and Trypan Blue (d). (e) Knockdown of BRAF was confirmed by western blot. […] BJ-TERT/LT/ST/RAS^V12 cells were treated with erastin alone or in with a MEK inhibitor U0126 (20 μM), MEK inhibitor I (10 μM) or MEK 1/2 inhibitor (50 μM). After 48 h, viability was determined using Trypan Blue. (g) Structures of certain erastin and related analogs. (h) and (i) Dose-response curves were measured for erastin A3 and erastin B2 in BJ-TERT/LT/ST/RAS^V12 cells (black squares) or BJ-TERT cells (grey circles). (j) Calu-1 lung carcinoma cells harboring oncogenic KRAS were infected with lentivirus containing shRNAs targeting KRAS or GFP. Sequences of shRNAs are indicated by starting nucleotide (nt) in the KRAS mRNA coding sequence. Cells were treated with erastin and viability (y-axis) measured by Trypan Blue exclusion. Cells were treated with erastin for 24 hours, and percent inhibition of viability (y-axis) measured using Alamar Blue (k) and Trypan Blue (l). (m) Structures of erastin and related analogs. (n) Dose-response curves were measured for erastin A6, erastin B2, erastin A8 and erastin A9 in BJ-TERT/LT/ST/RAS^V12 cells (squares) or BJ-TERT cells (circles) using Alamar Blue.
Alamar Blue metabolism: 10% Alamar Blue was added to assay plates, which were then incubated for an additional 16 hours. Red fluorescence, resulting from reduction of Alamar Blue, was detected on a Victor3 platereader (ex: 530, em: 590).
Table 2. Activity of RAS-selective lethal compound erastin in tumor cell lines. IC50 values (ng/mL) are shown using the Alamar Blue viability assay. BJ engineered tumor cells express TERT, LT, ST, and oncogenic RAS. Isogenic RAS^V12 lacking cells are identical but lack HRAS^V12. BJ-DRD cells are derived from BJ cells and contain TERT, oncogenic RAS, a truncated from of p53 (p53DD) that disrupts the tetramerization of endogenous p53, a CDK4(R24C) mutant resistant to inhibition by p16INK4A and p151NK4B (the major negative regulators of CDK4) and cyclin D1. These latter protein substitute for LT. HCT-116, A549, Calu-1, and MIA PaCa-2 are tumor cells derived from cancers (colon, lung, lung and pancreatic, respectively) known to have activating mutations in RAS.

VDAC2 = target: T1, VDAC2 (Homo sapiens, UniProt P45880); assay: VDAC2 binding assay (competition with radiolabelled erastin A9); settings: competition with tritium-labeled erastin A9
T1 construct: hexahistidine (pET-15b, thrombin site) (N); made in house; host or cells: E. coli
T1 sequence (P45880 1-294): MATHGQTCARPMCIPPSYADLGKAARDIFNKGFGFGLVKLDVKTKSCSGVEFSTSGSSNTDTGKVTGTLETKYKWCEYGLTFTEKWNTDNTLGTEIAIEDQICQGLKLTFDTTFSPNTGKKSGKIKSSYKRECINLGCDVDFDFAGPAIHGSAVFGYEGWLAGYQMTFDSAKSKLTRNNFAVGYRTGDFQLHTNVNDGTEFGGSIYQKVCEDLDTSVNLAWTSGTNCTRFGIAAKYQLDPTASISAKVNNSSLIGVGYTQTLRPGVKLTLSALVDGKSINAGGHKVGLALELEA
Method: Given the interactions between erastin and VDAC using affinity-based target identification and VDAC functional assays, the direct binding of erastin to VDACs was investigated.
VDAC2 protein was isolated from E. coli using a modified version of the protocol originally described by Koppel et al. Bacterial cultures were grown in LB containing 50 mg/L ampicillin to an OD of 0.6, and induced using […] IPTG overnight. Cultures were harvested by centrifugation at 6000×g for 10 min. The pellet was then washed with dH2O and resuspended in buffer (20% sucrose, 20 mM Tris, pH 8.0, […] lysozyme) and incubated at 25° C. for 10 minutes. The lysate was then sonicated for 2×30 seconds and centrifuged at 15000×g for 20 minutes. The pellet was resuspended in resuspension buffer (4.5 M guanidine-HCl, 0.1M NaCl, 20 mM Tris, pH 8.0) and incubated for 1 hour at 25° C. The suspension was then centrifuged (20 minutes, 15000×g), and the supernatant was loaded on a NI-NTA Superflow column (Qiagen) pre-equilibrated with 5 volumes of resuspension buffer. The column was washed with 5 column volumes of resuspension buffer containing 10 mM imidazole. The protein was then eluted using resuspension buffer containing 225 mM imidazole. The eluate was dialysed against 0.1 M NaCl, 20 mM Tris, pH 8.0, and 2% LDAO (Fluka) overnight, and then concentrated via centrifugation to 4 mg/mL.
To assay direct binding of erastin analogs, 40 μg of purified VDAC2 was resuspended in 100 μL of Binding Buffer (25 mM HEPES, pH 8.0, 0.1% BSA, 7 mM MgCl2, 15 mM NaCl), and incubated in the presence of 20 μM radiolabelled erastin A9 and erastin A9 or erastin A8 for 15 minutes. The mixture was then deposited onto Protran BA85 0.45 μM binding filters (Whatman) using vacuum filtration. The filter was rinsed 5 times with 1 mL wash buffer (25 mM HEPES, 0.1% BSA), and then incubated in 5 mL scintillation liquid (Cytoscint, MP Biomedicals). Radioactivity was detected on a LKB Wallac 1211 RACKBETA Liquid Scintillation Counter.

CCRF-CEM parental cells = assay: Cell death in taxol/vinblastine resistance panel; assay type: cell-based; settings: Homo sapiens
Method: (§1) In certain embodiments, the sensitivity to erastin, can be tested in cell lines that are resistant to taxol and vinblastine. The sensitivity of CCRF-CEM parental, and taxol and vinblastine resistant derivative cells to erastin was tested. […] Erastin analogues can be tested to ensure their effectiveness in inducing cell death in tumor cell line which are resistant to taxol or vinblastin, or other ant-tumor agents.

[3] = tested on: taxol resistant CCRF-CEM derivative cells; assay: Cell death in taxol/vinblastine resistance panel; assay type: cell-based; settings: Homo sapiens
Method: as §1

[4] = tested on: vinblastine resistant CCRF-CEM derivative cells; assay: Cell death in taxol/vinblastine resistance panel; assay type: cell-based; settings: Homo sapiens
Method: as §1

**Q.** Which “Effect on erastin-induced cell death” value [1] does the source give for `Cn1cnc(N)c2ncnc1-2` [3-methyladenine] here?
**A.** not suppressed

**Q.** How did the “Effect on erastin-induced cell death” value [1] turn out when `COC(=O)CC(NC(=O)OC(C)(C)C)C(=O)CF` (centres unmarked) [Boc-Asp(Ome)-fluoromethyl ketone] was run?
**A.** does not block cell death induced by erastin

**Q.** For `Oc1ncnc2[nH]ncc12` [allopurinol], which “Effect on erastin-induced cell death” value [1] is on record?
**A.** did not affect erastin-induced cell death

**Q.** `Cc1c(C)c2c(c(C)c1O)CC[C@@](C)(CCC[C@H](C)CCC[C@H](C)CCCC(C)C)O2` [alpha-tocopherol] was tested. Which “Effect on erastin-induced cell death” value [1] did it give?
**A.** prevented erastin-induced death

**Q.** Which “Effect on erastin-induced cell death” value [1] does the source give for `CC1=C(/C=C/C(C)=C/C=C/C(C)=C/C=C/C=C(C)/C=C/C=C(C)/C=C/C2=C(C)CCCC2(C)C)C(C)(C)CCC1` [beta-carotene] here?
**A.** prevented erastin-induced death

**Q.** Which “Effect on erastin-induced cell death” value [1] does the source give for `Cc1cc(C(C)(C)C)c(O)c(C(C)(C)C)c1` [butylated hydroxytoluene] here?
**A.** prevented erastin-induced death

**Q.** Which “Effect on erastin-induced cell death” value [1] does the source give for `CC(C)(Oc1ccc(C2CC2(Cl)Cl)cc1)C(=O)O` (centres unmarked) [ciprofibrate] here?
**A.** did not affect erastin-induced cell death

**Q.** With `C[C@@H]1C[C@@H]([C@H](O)CC2CC(=O)NC(=O)C2)C(=O)[C@@H](C)C1` [cyclohexamide] as the compound, how does the “Effect on erastin-induced cell death” value [1] read?
**A.** suppressed

**Q.** How did the IC50 [2] turn out when `CCOc1ccccc1-n1c(C(C)N2CCN(C(=O)COc3ccc(CN)cc3)CC2)nc2ccccc2c1=O` (centres unmarked) [erastin A3] was run?
**A.** 25000 nM

**Q.** What about the “Selective lethality / activity of erastin analog” value [2] of the same compound?
**A.** retained the ability to selectively kill BJ-TERT/LT/ST/RAS^V12 cells; also recorded: retained the ability to kill BJ-TERT/LT/ST/RAS^V12 cells but not BJ-TERT cells

**Q.** Which “Selective lethality / activity of erastin analog” value ([2]; listed as ERA-A6) does the source give for `CCOc1ccccc1-n1c(C(C)N2CCN(C(=O)COc3ccc(CN)cc3)CC2)nc2ccccc2c1=O` (centres unmarked) [erastin A6, 2-(1-{4-[2-(4-Aminomethyl-phenoxy)-acetyl]-piperazin-1-yl}-ethyl)-3-(2-ethoxy-phenyl)-3H-quinazolin-4-one] here?
**A.** selectively lethal to RAS^V12-expressing cells

**Q.** `CCOc1ccccc1-n1c(C(C)N2CCN(C(=O)COc3ccc(Cl)cc3)CC2)nc2cc(NC(C)=O)ccc2c1=O` (centres unmarked) [erastin A9, N-[2-(1-{4-[2-(4-chloro-phenoxy)-acetyl]-piperazin-1-yl}-ethyl)-3-(2-ethoxy-phenyl)-4-oxo-3,4-dihydro-quinazolin-7-yl]-acetamide] was tested. Which IC50 ([2]; Homo sapiens) did it give?
**A.** 1900 nM

**Q.** What about the “Direct binding to VDAC2” value (VDAC2) of the same compound?
**A.** directly binds VDAC2

**Q.** What about the Kd (VDAC2) of the same compound?
**A.** 112 nM

**Q.** `CC(C)NC(=O)N(CCN1CCN(C(=O)COc2ccc(Cl)cc2)CC1)Cc1ccc(F)cc1` [erastin B1] was tested. Which IC50 [2] did it give?
**A.** 10000 nM

**Q.** And the “Selective lethality / activity of erastin analog” value [2]?
**A.** inactive

**Q.** What does the source list for `CC(C)NC(=O)N(CCN1CCN(C(=O)COc2ccc(Cl)cc2)CC1)Cc1ccc(CN)cc1` [erastin B2, 1-(4-Aminomethyl-benzyl)-1-(2-{4-[2-(4-chloro-phenoxy)-acetyl]-piperazin-1-yl}-ethyl)-3-isopropyl-urea]?
**A.** Selective lethality / activity of erastin analog [2]: lacking activity in cells; also recorded: lacks activity; IC50 ([2]; Homo sapiens): > 50000 nM

**Q.** Which “Effect on erastin-induced cell death” value [1] does the source give for `COc1ccc2[nH]cc(CCNC(C)=O)c2c1` [melatonin] here?
**A.** did not affect erastin-induced cell death

**Q.** How did the “Effect on erastin-induced cell death” value [1] turn out when `O=c1[nH]c(=O)c2c[nH]nc2[nH]1` [oxypurinol] was run?
**A.** did not affect erastin-induced cell death

**Q.** Which IC50 (CCRF-CEM parental cells) does the source give for `CC(=O)O[C@H]1C(=O)[C@@]2(C)[C@H]([C@H](OC(=O)c3ccccc3)[C@]3(O)C[C@H](OC(=O)[C@H](O)[C@@H](NC(=O)c4ccccc4)c4ccccc4)C(C)=C1C3(C)C)[C@]1(OC(C)=O)CO[C@@H]1C[C@@H]2O` [taxol] here?
**A.** 1 nM

**Q.** And the IC50 [3]?
**A.** 560 nM

**Q.** And the IC50 [4]?
**A.** 1380 nM

**Q.** `CC[C@]1(O)C[C@@H]2CN(CCc3c([nH]c4ccccc34)[C@@](C(=O)OC)(c3cc4c(cc3OC)N(C)[C@H]3[C@@](O)(C(=O)OC)[C@H](OC(C)=O)[C@]5(CC)C=CCN6CC[C@]43[C@@H]65)C2)C1` [vinblastine] was tested. Which IC50 (CCRF-CEM parental cells) did it give?
**A.** 1 nM

**Q.** And the IC50 [3]?
**A.** 93 nM

**Q.** And the IC50 [4]?
**A.** 370 nM

From patent US20080299076A1, “Compunds and compositions that cause non-apoptotic cell death and uses thereof” (priority 2006, published 2008)
